Patent publication US12649750B2, “Macrocyclic compounds, compositions, and methods of using thereof” (Sionna Therapeutics Inc., priority 2022, dated 2026)

Biological target: T1, NBD1 (Homo sapiens, UniProt P13569)
T1 construct: Purified recombinant NBD1 was produced using previously described methods; made in house
Assay: Aggregation analysis using differential static light scattering (DSLS), thermal stability of NBD1 (ΔTagg)
Format: binding
Conditions: ΔTagg versus DMSO control, NBD1 0.2 mg/ml
Procedure: Example 386. Aggregation Analysis Using Differential Static Light Scattering (DSLS)
Purified recombinant NBD1 was produced using previously described methods (A. Schmidt, J. L. Mendoza, P. J. Thomas (2011) Biochemical and Biophysical Approaches to Probe CFTR Structure (365-376) M. D. Amaral, K. Kunzelmann (eds.), Cystic Fibrosis, Methods in Molecular Biology 741, Springer Science+Business Media). The effect of test compounds on thermal stability of NBD1 was evaluated by differential static light scattering (DSLS) using the Harbinger Stargazer-384 instrument (Epiphyte Three, Toronto, Canada). Test compounds were dissolved and diluted to desired concentrations in 100% DMSO. The compounds or DMSO controls (100 nL) were stamped into wells of a […] low volume optical plate (Corning Inc., Corning, NY) using the Echo 555 acoustic liquid handler (Labcyte Inc., San Jose, CA).
NBD1 protein was diluted to 0.2 mg/ml in S200 buffer (50 mM Tris-HCl, 150 mM NaCl, 5 mM MgCl2, 2 mM ATP, 2 mM DTT, pH7.6) containing 1% glycerol. 10 uL of protein solution was aliquoted into the 384-well plate harboring the test compounds and 10 uL mineral oil was overlaid onto the protein solution, using the epMotion robotic liquid handler (Eppendorf North America, Hauppauge, NY). After placing into the Stargazer instrument, the plate was heated at 1° C. per minute to 70° C. Images were captured from 25° C. to 70° C. every 0.5° C. At the end of the experiment run, instrument software integrated image files and analyzed data automatically. A […] regression curve was generated for each well, representing the increase in light scattering over time. A temperature of aggregation (Tagg) was calculated based on the inflection point of the curve. To better compare data across experiments the average Tagg for DMSO control wells was calculated and subtracted from values for wells containing compounds to obtain a “ΔTagg” value. These ΔTagg values reflect stabilizing efficacy of the compounds. As set forth in Table 2 below, an ΔTagg value less than or equal to 5° C. is marked “A”; a value above 5° C. and less than or equal to 10° C. is marked “B”; a value greater than 10° C. and less than or equal to 25° C. is marked “C”.

T1 sequence (P13569 423-646 limits assumed): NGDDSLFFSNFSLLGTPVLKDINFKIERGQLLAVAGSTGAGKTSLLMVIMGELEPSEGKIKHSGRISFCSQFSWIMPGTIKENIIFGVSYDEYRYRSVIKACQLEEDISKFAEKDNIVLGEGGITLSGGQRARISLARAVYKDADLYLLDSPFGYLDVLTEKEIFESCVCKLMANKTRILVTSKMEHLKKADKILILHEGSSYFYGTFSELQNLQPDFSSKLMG

SMILES	DSLS 3D (100 μM ΔT)
C[C@@H](Cc1cccc(C2(C)CCCC(C)(C)CS(=O)(=O)CCc3c(c(F)cc4[nH]ccc34)Sc3ccnc(c3)-c3nc2nn3C)n1)C(=O)O (single isomer, unassigned) [Compound 314A]	A (an ΔTagg value less than or equal to 5 °C is marked “A”)
C[C@@H](Cc1cccc([C@@]2(C)CCCC(C)(C)CS(=O)(=O)CCc3c(c(F)c(F)c4[nH]ccc34)S(=O)(=O)c3ccnc(c3)-c3nc2nn3C)c1)C(=O)O [Compound 346, (2S)-3-[3-[(6R)-21,22-Difluoro-3,6,10,10-tetramethyl-12,12,24,24-tetraoxo-12λ6,24λ6-dithia-3,4,19,28,30-pentazapentacyclo[23.3.1.12,5.015,23.016,20]triaconta-1(29),2(30),4,15,17,20,22,25,27-nonaen-6-yl]phenyl]-2-methyl-propanoic Acid]	B (a value above 5 °C and less than or equal to 10 °C is marked “B”)
C[C@H](Cc1cccc([C@@]2(C)CCCC(C)(C)CS(=O)(=O)CC(N(C)C)c3c(c(F)c(F)c4[nH]ccc34)Oc3ccc(F)c(c3)-c3nc2nn3C)c1)C(=O)N(C)C (single isomer, unassigned) [Compound 367B]	A (an ΔTagg value less than or equal to 5 °C is marked “A”)
C[C@H](Cc1cccc([C@@]2(C)CCCC(C)(C)CS(=O)(=O)CCc3c(c(F)c(F)c4[nH]cc(F)c34)Oc3ccc(F)c(c3)-c3nc2nn3C)c1)C(=O)O [Compound 345, (2R)-2-Methyl-3-[3-[(6R)-17,21,22,28-tetrafluoro-3,6,10,10-tetramethyl-12,12-dioxo-24-oxa-12λ6-thia-3,4,19,30-tetrazapentacyclo[23.3.1.12,5.015,23.016,20]triaconta-1(29),2(30),4,15,17,20,22,25,27-nonaen-6-yl]phenyl]propanoic Acid]	B (a value above 5 °C and less than or equal to 10 °C is marked “B”)
C[C@H](Cc1cccc([C@@]2(C)CCCC(C)(C)CS(=O)(=O)CCc3c(c(F)cc4[nH]ccc34)Sc3cc(c(F)cc3N)-c3nc2nn3C)c1)C(=O)O [Compound 377, (2R)-3-[3-[(6R)-26-Amino-22,28-difluoro-3,6,10,10-tetramethyl-12,12-dioxo-12λ6,24-dithia-3,4,19,30-tetrazapentacyclo[23.3.1.12,5.015,23.016,20]triaconta-1(29),2(30),4,15,17,20,22,25,27-nonaen-6-yl]phenyl]-2-methyl-propanoic Acid]	B (a value above 5 °C and less than or equal to 10 °C is marked “B”)
Cn1nc2nc1-c1cc(ccn1)S(=O)(=O)c1c(F)c(F)c3[nH]ccc3c1CCS(=O)(=O)CC(C)(C)CCC[C@]2(C)c1cccc(CC2(C(=O)O)CC2)c1 [Compound 310, 1-[[3-[(6R)-21,22-difluoro-3,6,10,10-tetramethyl-12,12,24,24-tetraoxo-12λ6,24λ6-dithia-3,4,19,28,30-pentazapentacyclo[23.3.1.12,5.015,23.016,20]triaconta-1(29),2(30),4,15,17,20,22,25,27-nonaen-6-yl]phenyl]methyl]cyclopropanecarboxylic acid]	A (an ΔTagg value less than or equal to 5 °C is marked “A”)
Cn1nc2nc1-c1cc(ccc1F)[S+]([O-])c1c(F)c(F)c3[nH]cc(CC(=O)O)c3c1CCS(=O)(=O)CC(C)(C)CCC[C@]2(C)c1ccccc1 (single isomer, unassigned) [Compound 326]	A (an ΔTagg value less than or equal to 5 °C is marked “A”)
C[C@@H](Cc1cccc([C@@]2(C)CCCC(C)(C)CS(=O)(=O)CCc3c(c(F)c(F)c4[nH]ccc34)S(=O)(=O)c3ccc(F)c(c3)-c3nc2nn3C)c1)C(=O)O [Compound 351, (2S)-2-Methyl-3-[3-[(6R)-21,22,28-trifluoro-3,6,10,10-tetramethyl-12,12,24,24-tetraoxo-12λ6,24λ6-dithia-3,4,19,30-tetrazapentacyclo[23.3.1.12,5.015,23.016,20]triaconta-1(29),2(30),4,15,17,20,22,25,27-nonaen-6-yl]phenyl]propanoic Acid]	B (a value above 5 °C and less than or equal to 10 °C is marked “B”)
Cn1nc2nc1-c1cc(ccc1F)S(=O)(=O)c1c(F)c(F)c3[nH]ccc3c1CCS(=O)(=O)CC(C)(C)CCC[C@]2(C)c1cccc(CC(C)(C)C(=O)O)c1 [Compound 358, 2,2-Dimethyl-3-[3-[(6R)-21,22,28-trifluoro-3,6,10,10-tetramethyl-12,12,24,24-tetraoxo-12λ6,24λ6-dithia-3,4,19,30-tetrazapentacyclo[23.3.1.12,5.015,23.016,20]triaconta-1(29),2(30),4,15,17,20,22,25,27-nonaen-6-yl]phenyl]propanoic Acid]	A (an ΔTagg value less than or equal to 5 °C is marked “A”)
Cn1nc2nc1-c1cc(ccn1)Oc1c(F)c(F)c3[nH]ccc3c1CCS(=O)(=O)CC(C)(C)CCC[C@]2(C)c1cccc(CC(C)(C)C(=O)O)c1 [Compound 323, 3-[3-[(6R)-21,22-Difluoro-3,6,10,10-tetramethyl-12,12-dioxo-24-oxa-12λ6-thia-3,4,19,28,30-pentazapentacyclo[23.3.1.12,5.015,23.016,20]triaconta-1(29),2(30),4,15,17,20,22,25,27-nonaen-6-yl]phenyl]-2,2-dimethyl-propanoic Acid]	B (a value above 5 °C and less than or equal to 10 °C is marked “B”)
CC(=O)OC[C@H](Cc1cccc([C@@]2(C)CCCC(C)(C)CS(=O)(=O)CCc3c(c(F)cc4[nH]ccc34)Sc3ccnc(c3)-c3nc2nn3C)c1)OC(C)=O [Compound 332]	A (an ΔTagg value less than or equal to 5 °C is marked “A”)
Cn1nc2nc1-c1cc(ccc1F)Sc1c(F)cc3[nH]ccc3c1CCS(=O)(=O)CC(C)(C)CCC[C@]2(C)c1cccc([C@H](O)CO)c1 [Compound 302A, (1S)-1-[3-[(6R)-22,28-Difluoro-3,6,10,10-tetramethyl-12,12-dioxo-12λ6,24-dithia-3,4,19,30-tetrazapentacyclo[23.3.1.12,5.015,23.016,20]triaconta-1(29),2(30),4,15,17,20,22,25,27-nonaen-6-yl]phenyl]ethane-1,2-diol]	B (a value above 5 °C and less than or equal to 10 °C is marked “B”)
C[C@H](Cc1cccc([C@@]2(C)CCCC(C)(C)CS(=O)(=O)CCc3c(c(F)c(F)c4[nH]ccc34)[S+]([O-])c3ccc(F)c(c3)-c3nc2nn3C)c1)C(=O)O (single isomer, unassigned) [Compound 319]	B (a value above 5 °C and less than or equal to 10 °C is marked “B”)
C[C@@H](Cc1cccc(C2CCCC(C)(C)CS(=O)(=O)CCc3c(c(F)cc4[nH]ccc34)Oc3ccc(F)c(c3)-c3c(C#N)cnn32)c1)C(=O)O (mixture of isomers) [Compound 151, (2S)-3-[3-(3-Cyano-23,29-difluoro-11,11-dimethyl-13,13-dioxo-25-oxa-13λ6-thia-5,6,20-triazapentacyclo[24.3.1.02,6.016,24.017,21]triaconta-1(30),2,4,16,18,21,23,26,28-nonaen-7-yl)phenyl]-2-methyl-propanoic Acid]	A (an ΔTagg value less than or equal to 5 °C is marked “A”)
Cn1nc2nc1-c1cc(ccc1F)[S+]([O-])c1c(F)c(F)c3[nH]ccc3c1CCS(=O)(=O)CC(C)(C)CCC[C@]2(C)c1cccc(CC2(C(=O)O)CC2)c1 (single isomer, unassigned) [Compound 303B]	A (an ΔTagg value less than or equal to 5 °C is marked “A”)
CC1(C)CCCC(C)(c2cccc(CCC(=O)O)c2)c2csc(n2)-c2cc(ccc2F)Oc2c(F)cc3[nH]ccc3c2CCS(=O)(=O)C1 (centres unmarked) [Compound 49, 3-[3-(22,28-Difluoro-6,10,10-trimethyl-12,12-dioxo-24-oxa-3,12lambda6-dithia-19,30-diazapentacyclo[23.3.1.12,5.015,23.016,20]triaconta-1(29),2(30),4,15,17,20,22,25,27-nonaen-6-yl)phenyl]propanoic acid]	C (a value greater than 10 °C and less than or equal to 25 °C is marked “C”)
Cc1onc(NC(=O)[C@H](C)Cc2cccc([C@@]3(C)CCCC(C)(C)CS(=O)(=O)CCc4c(c(F)c(F)c5[nH]ccc45)Oc4ccc(F)c(c4)-c4nc3nn4C)c2)c1C [Compound 384, (2R)—N-(4,5-Dimethylisoxazol-3-yl)-2-methyl-3-[3-[(6R)-21,22,28-trifluoro-3,6,10,10-tetramethyl-12,12-dioxo-24-oxa-12λ6-thia-3,4,19,30-tetrazapentacyclo[23.3.1.12,5.015,23.016,20]triaconta-1(29),2(30),4,15,17,20,22,25,27-nonaen-6-yl]phenyl]propenamide]	A (an ΔTagg value less than or equal to 5 °C is marked “A”)
